We go through 4 compounds from PMC3276683 (Bioorganic & medicinal chemistry, 2012).

Test [1] relates to Plasmodium falciparum (strain K1, IEF stage). Format: cell-based. The conditions noted are these: L6 IC50 versus P. falciparum IC50.
The test system of test [2] is Trypanosoma brucei rhodesiense (strain STIB 900, trypomastigote stage). Nature of the test: Growth inhibition of T. b. rhodesiense STIB900 trypomastigote forms. Format: cell-based.
The subject of test [3] is American Trypanosoma cruzi blood trypomastigotes. The conditions noted are these: in words; cited from earlier work.
Test [4] deals with Leishmania donovani. The conditions noted are these: cited from earlier work.

Where two headings read alike, the source gives them in different places.

Take `COC1=CC(=O)O[C@]2(/C=C/c3ccc(C(C)(C)C)cc3)[C@H]1[C@H](c1ccc(C(C)(C)C)cc1)[C@H]2c1cc(OC)cc(=O)o1` (racemic) [compound 33, 12,12′-Di-tert-butyl-aniba-dimer-A]: in test [1], the “SI Pf. (selectivity index for Plasmodium falciparum against L6)” value was approximately 80. Turning to `Nc1nc(N)nc(Nc2ccc([As]3SCC(CO)S3)cc2)n1` (centres unmarked) [melarsoprol], the IC50 – broadly, the concentration that gives 50% inhibition – in test [2] (RHODESIENSE|STIB900) came out at 4 ng/mL; in test [2] (RHODESIENSE|STIB900, read-out: T.b.rhod. IC50), 10 nM. On to `COc1cc(/C=C/c2ccc(OC)c(OC)c2)oc(=O)c1` [compound 3, 6-[2-(3,4-Dimethoxyphenyl)ethenyl]-4-methoxy-2H-pyran-2-one], for which, in test [3], the “activity against T. cruzi blood trypomastigotes” value is reported as “weak activity”.

For the compound `CCCCCCc1c(OC)cc(CCCCC)oc1=O` [compound 10], the IC50 entry in test [4] is recorded as “similarly active”.
